Assay results published in patent US10793576B2, “Compound used as Bruton's tyrosine kinase inhibitor and preparation method and application thereof” (Chengdu Brilliant Pharmaceutical Co., LTD., priority 2017, dated 2020).

Legend:
[1] = target: BTK kinase (Homo sapiens (Human), UniProt Q06187); assay: In vitro assay for the inhibition of BTK kinase activity (Mobility-Shift Assay); assay type: biochemical
Outline: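 Fluorescently labelled peptide substrate converted by the kinase; substrate and phosphorylated product separated by charge on a microfluidic chip (mobility shift) and quantified separately. Results expressed as conversion rate; control wells received 100% DMSO.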

[2] = tested on: DOHH2 cells; assay: Cell proliferation inhibition in vitro, DOHH2 cells by CTG assay; assay type: cell-based; details: Homo sapiens, DOHH-2, 72 hours, read-out: Inhibitions of cell activities IC50 (nM) DOHH2
Procedure: (§1) Test Example 2: Determination of the Inhibition of Cell Proliferation Inhibitory Activity in
(§2) vitro of compounds using different cell lines
(§3) 2: Preparation of the Compounds:
(§4) The compounds to be tested were diluted with DMSO to prepare a mother liquor at a final concentration of 10 mM for later use.
3.2 Test of DOHH2 Cells by CTG Assay
(§5) Logarithmic growth phase cells were collected, counted and resuspended in complete medium. The cell concentration was adjusted to a suitable concentration (determined according to the cell density optimization test results), and seeded to 96-well plate and 100 μl of the cell suspension was added to each well. The cells were incubated in an incubator at 37° C., 100% relative humidity and 5% C02 for 24 hours.
The compounds to be tested were diluted with the medium to the set corresponding action concentration, and the cells were added at 10 µl/well. The cells were incubated in an incubator set at 37° C., 100% relative humidity and 5% C02 for 72 hours.
The medium was aspirated and discarded, and 30 μl of test reagent was added. The plate was gentle shaken away from the light to lyse the cells.
(§6) As: OA of the sample (cell+test reagent+test compound)
(§7) Ac: OA of the negative control (cell+test reagent+DMSO)
(§8) Ab: OA of the positive control (medium+test reagent+DMSO)
(§9) IC50 curve fitting was performed using the software Graphpad Prism 5 or XLfit and IC50 values were calculated.

[3] = tested on: TMD8 cells; assay: Cell proliferation inhibition in vitro, TMD8 cells by CCK-8 method; assay type: cell-based; details: Homo sapiens, 72 hours, read-out: Inhibitions of cell activities IC50 (nM) TMD8
Procedure: as §1, §2, §3, §4
(§10) 3.1. Test of TMD8 and OCI-ly10 Cells by CCK-8 Method
as §5
(§11) The compounds to be tested were diluted with the medium to the set corresponding action concentration, and the cells were added at 25 µl/well. The cells were incubated in an incubator at 37° C., 100% relative humidity and 5% C02 for 72 hours.
(§12) The medium was aspirated and discarded, and a complete medium containing 10% of the test reagent was added and the obtained system was incubated in a 37° C. incubator for 1 hour-4 hours.
as §6, §7, §8, §9

[4] = tested on: OCI-LY10 cells; assay: Cell proliferation inhibition in vitro, OCI-ly10 cells by CCK-8 method; assay type: cell-based; details: Homo sapiens, 72 hours, read-out: Inhibitions of cell activities IC50 (nM) OCI-LY10
Procedure: as §1, §2, §3, §4, §10, §5, §11, §12, §6, §7, §8, §9

[5] = Pharmacokinetic test in SD rats (oral 10 mg/kg, intravenous 1 mg/kg); assay type: in vivo; details: SD rat; for F (po) %: oral 10 mg/kg vs intravenous 1 mg/kg; for AUC / Cmax / Tmax: oral 10 mg/kg
Procedure: SD rat, male (purchased from Shanghai Sippr-Bk Laboratory Animal Co., Ltd.), each tested compound was administered at a single dose to SD rats by oral administration (10 mg/kg, 3 rats in each group) and intravenous administration (1 mg/kg, 3 rats in each group) for the pharmacokinetic study. The tested compounds were dissolved using DMSO/[…] sodium chloride injection=5/95 (V/V), and vortexed for 1 minute, and after 1 minute of sonication, the compounds were formulated into solutions for administrations. Animals were fasted for 16-17 hours prior to oral administration and feeding was restored 4 hours after administration. After oral and intravenous administration, pharmacokinetic samples were collected from SD rats by jugular vein or cardiac puncture at the following time points: before administration, 5 minute, 15 minute, 30 minute, 1 hour, 2 hours, 4 hours, 6 hours, 8 hours and 24 hours after administration. 3 whole blood samples were collected at each time point, and the collected amount was about 0.2 mL, and the collected samples were anticoagulated by heparin sodium. After collection, the blood samples were immediately placed on ice and centrifuged to separate plasma within 30 minutes (centrifugation conditions: 8000 rpm, 6 minute, 2-8° C.). The collected plasma was stored at −70° C. prior to analysis. 50 μL of plasma sample was brought into a 1.5 mL centrifuge tube, 250 μL of internal standard solution (blank with no internal standard but the same volume of methanol added) was added, blended with vortex, centrifuged at 15000 rpm for 5 minutes. 200 μL of supernatant was taken and added to a 96-well sample plate and the samples were analyzed by LC-MS/MS.

Sequence of BTK kinase (Q06187 whole entry): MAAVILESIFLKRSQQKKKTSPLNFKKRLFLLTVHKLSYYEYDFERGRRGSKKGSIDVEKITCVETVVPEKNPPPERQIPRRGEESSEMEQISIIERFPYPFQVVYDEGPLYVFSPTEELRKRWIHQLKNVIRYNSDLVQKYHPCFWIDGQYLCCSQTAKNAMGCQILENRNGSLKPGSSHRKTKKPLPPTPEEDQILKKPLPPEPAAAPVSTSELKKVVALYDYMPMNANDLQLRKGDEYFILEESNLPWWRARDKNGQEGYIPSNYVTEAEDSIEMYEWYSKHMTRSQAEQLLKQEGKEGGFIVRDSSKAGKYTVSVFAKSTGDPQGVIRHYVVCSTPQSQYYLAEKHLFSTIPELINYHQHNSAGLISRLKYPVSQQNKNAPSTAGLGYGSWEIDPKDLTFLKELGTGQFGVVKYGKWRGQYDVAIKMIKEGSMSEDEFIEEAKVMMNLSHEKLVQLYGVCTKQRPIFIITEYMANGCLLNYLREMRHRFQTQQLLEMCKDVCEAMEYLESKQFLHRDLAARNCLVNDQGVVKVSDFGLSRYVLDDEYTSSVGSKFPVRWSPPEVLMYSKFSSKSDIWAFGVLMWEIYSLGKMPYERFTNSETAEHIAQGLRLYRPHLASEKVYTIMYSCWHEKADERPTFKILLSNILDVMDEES

Compound | IC50 [1] [nM] | IC50 [2] [nM] | IC50 [3] [nM] | IC50 [4] [nM] | F (po) % [5] [%] | clearance ([5]; male, plasma, intravenous 1 mg/kg, read-out: Cl (iv) (converted)) [mL/min/kg] | half-life ([5]; male, plasma, intravenous 1 mg/kg, read-out: T½ (iv) h (converted)) [min] | AUC ([5]; male, plasma) [ng·h/mL] | Cmax ([5]; male, plasma) [ng/mL] | Tmax ([5]; male, plasma) [min]
C=CC(=O)N1C2C[C@@H](C1c1nc(-c3ccc(C(=O)Nc4ccccn4)cc3)c3c(N)nccn13)N(C)C2 (stereo partly drawn) [Example 15] | 17.4 | 716 | 64.5 | 17.6 |  |  |  |  |  | 
CC#CC(=O)N1CCC[C@H]1c1nc(-c2ccc(C(=O)Nc3ccccn3)cc2)c2c(N)nccn12 [ACP-196, reference compound] |  | > 1000 | 1.3 | 1.4 | 19.75 | 125 | 7.8 | 266 | 266 | 4.8
CC#CC(=O)N1C2CC[C@@H](C2)C1c1nc(-c2ccc(Oc3ccccc3)cc2)c2c(N)nccn12 (stereo partly drawn) [Example 99] | 39 | > 1000 | 5.4 | 2.7 |  |  |  |  |  | 
CC#CC(=O)N1C2CCC1(c1nc(-c3ccc(C(=O)Nc4ccccn4)cc3)c3c(N)nccn13)COC2 (stereo not drawn) [Example 12] | 14 | 129 | 4.3 | 7.4 |  |  |  |  |  | 
C=CC(=O)N1C2CN[C@@H](C2)C1c1nc(-c2ccc(C(=O)Nc3ccccn3)cc2)c2c(N)nccn12 (stereo partly drawn) [Example 13] | 3.3 | 138 | 0.38 | 0.67 |  |  |  |  |  | 
CN(C)C/C=C/C(=O)N1CC2(CC2)C[C@H]1c1nc(-c2ccc(C(=O)Nc3ccccn3)cc2)c2c(N)nccn12 [Example 112, (S,E)-4-(8-amino-3-(5-(4-(dimethylamino)but-2-enoyl)-5-azaspiro[2.4]heptan-6-yl)imidazo[1,5-a]pyrazin-1-yl)-N-(pyridin-2-yl)benzamide] | 21 | 902 | 0.31 | 0.41 |  |  |  |  |  | 
CN(C)C/C=C/C(=O)N1CC2CCCC2[C@H]1c1nc(-c2ccc(C(=O)Nc3ccccn3)cc2)c2c(N)nccn12 (stereo partly drawn) [Example 113, 4-(8-amino-3-((1S)-2-((E)-4-(dimethylamino)-2-butenoyl)octahydrocyclopenta [c]pyrrol-1-yl)imidazo[1,5-a]pyrazin-1-yl)-N-(pyridin-2-yl)benzamide] | 4.6 | > 1000 | 12.5 | 7.4 |  |  |  |  |  | 
C=CC(=O)N1C2CCC1(c1nc(-c3ccc(C(=O)Nc4cc(C(F)(F)F)ccn4)cc3)c3c(N)nccn13)COC2 (stereo not drawn) [Example 48] | 2.1 | 103 | 0.31 | 0.46 |  |  |  |  |  | 
C=CC(=O)N1C2CC[C@@H](C2)C1c1nc(-c2ccc(C(=O)Nc3cc(C)ccn3)cc2)c2c(N)nccn12 (stereo partly drawn) [Example 62] | 13 | 179 | 2.8 | 3.9 |  |  |  |  |  | 
CC#CC(=O)N1C2CN[C@@H](C2)C1c1nc(-c2ccc(C(=O)Nc3cc(C(F)(F)F)ccn3)cc2)c2c(N)nccn12 (stereo partly drawn) [Example 53] | 1.8 | 166 | 0.75 | 1.3 |  |  |  |  |  | 
CC#CC(=O)N1C2CCC1(c1nc(-c3ccc(C(=O)Nc4cc(C(F)(F)F)ccn4)cc3)c3c(N)nccn13)COC2 (stereo not drawn) [Example 49] | 4.8 | 436 | 6.4 | 3.4 |  |  |  |  |  | 
CC#CC(=O)N1CC2CCCC2C1c1nc(-c2ccc(Oc3ccccc3)cc2)c2c(N)nccn12 (stereo not drawn) [Example 97] | 2.8 | > 1000 | 6.2 | 0.4 |  |  |  |  |  | 
CN(C/C=C/C(=O)N1CC2CCCC2[C@H]1c1nc(-c2ccc(C(=O)Nc3ccccn3)cc2)c2c(N)nccn12)C1CC1 (stereo partly drawn) [Example 115, 4-(8-amino-3-((1S)-2-((E)-4-(cyclopropyl(methyl)amino)-2-butenoyl)octahydrocyclopenta[c]pyrrol-1-yl)imidazo[1,5-a]pyrazin-1-yl)-N-(pyridin-2-yl) benzamide] | 26 | > 1000 | 17.6 | 12.1 |  |  |  |  |  | 
C=CC(=O)N1C[C@H]2[C@@H](C1c1nc(-c3ccc(C(=O)Nc4cc(C(F)(F)F)ccn4)cc3)c3c(N)nccn13)C2(C)C (stereo partly drawn) [Example 44] | 34 | 717 | 7.8 | 1.3 |  |  |  |  |  | 
CC#CC(=O)N1C2C[C@@H](C1c1nc(-c3ccc(C(C)(O)c4ccccc4)cc3)c3c(N)nccn13)N(C(C)C)C2 (stereo partly drawn) [Example 91] | 21 | > 1000 | 1.4 | 0.41 |  |  |  |  |  | 
CC#CC(=O)N1CC2(CC2)C[C@H]1c1nc(-c2ccc(Oc3ccccc3)cc2)c2c(N)nccn12 [Example 92, (S)-1-(6-(8-amino-1-(4-phenoxyphenyl)imidazo[1,5-a]pyrazin-3-yl)-5-azaspiro[2.4]heptan-5-yl) but-2-yn-1-one] | 4.3 | 712 | 7.6 | 0.31 |  |  |  |  |  | 
C=CC(=O)N1CCC[C@@H](n2nc(-c3ccc(Oc4ccccc4)cc3)c3c(N)ncnc32)C1 [Ibrutinib, reference compound] |  | 705 | 0.28 | 0.41 | 2.67 |  |  | 218 | 217 | 19.8
CC#CC(=O)N1C2CN[C@@H](C2)C1c1nc(-c2ccc(Oc3ccccc3)cc2)c2c(N)nccn12 (stereo partly drawn) [Example 107] | 41 | 986 | 12.3 | 0.81 |  |  |  |  |  | 
C=CC(=O)N1C2CC[C@@H](C2)C1c1nc(-c2ccc(C(=O)Nc3cc(Cl)ccn3)cc2)c2c(N)nccn12 (stereo partly drawn) [Example 70] | 2.4 | 677 | 6.8 | 3.2 |  |  |  |  |  | 
C=CC(=O)N1C2C[C@@H](C1c1nc(-c3ccc(C(=O)Nc4cc(C(F)(F)F)ccn4)cc3)c3c(N)nccn13)N(C(C)=O)C2 (stereo partly drawn) [Example 56] | 4.3 | 74 | 5.9 | 3.4 |  |  |  |  |  | 
C=CC(=O)N1CC2(CC2)C[C@H]1c1nc(-c2ccccc2C(=O)Nc2ccccn2)c2c(N)nccn12 [Example 125, (S)-2-(3-(5-acryloyl-5-azaspiro[2.4]heptan-6-yl)-8-aminoimidazo[1,5-a]pyrazin-1-yl)-N-(pyridin-2-yl)benzamide] | 58 | > 1000 | 24.9 | 8.7 |  |  |  |  |  | 
CC#CC(=O)N1[C@@H]2CC[C@@H](C2)[C@H]1c1nc(-c2ccc(C(=O)Nc3ccccn3)cc2)c2c(N)nccn12 [Example 23, 4-(8-amino-3-((1R,3S,4S)-2-(but-2-ynoyl)-2-azabicyclo[2.2.1]heptan-3-yl)imidazo [1,5-a]pyrazin-1-yl)-N-(pyridin-2-yl)benzamide] | 49 | > 1000 | 1.1 | 2.4 |  |  |  |  |  | 
C=CC(=O)N1C[C@H]2[C@@H]([C@H]1c1nc(-c3ccc(C(=O)Nc4cc(Cl)ccn4)cc3)c3c(N)nccn13)C2(C)C [Example 69] | 1.4 | 124 | 0.62 | 0.74 |  |  |  |  |  | 
C=CC(=O)N1C2CN[C@@H](C2)C1c1nc(-c2ccc(Oc3ccccc3)cc2)c2c(N)nccn12 (stereo partly drawn) [Example 106] | 47 | > 1000 | 21.4 | 0.78 |  |  |  |  |  | 
C=CC(=O)N1CC2CCCC2C1c1nc(-c2ccc(C(=O)Nc3cc(C(F)(F)F)ccn3)cc2)c2c(N)nccn12 (stereo not drawn) [Example 42] | 5.3 | 104 | 0.26 | 0.33 |  |  |  |  |  | 
